Measured values published in ChEMBL document CHEMBL4177524, “Discovery of hepatitis B virus capsid assembly inhibitors leading to a heteroaryldihydropyrimidine based clinical candidate (GLS4)” (Bioorg Med Chem, 2017).

How the values were obtained:
Hepatitis B virus [1] = test: Antiviral activity against entecavir-resistant wild type hepatitis B virus infected in human Huh7 cells assessed as reduction in intracellular DNA levels measured on day 7 by real-time PCR analysis; format: functional, organism-based; conditions: Huh-7, 168 h
Hepatitis B virus [2] = test: Antiviral activity against entecavir-resistant hepatitis B virus harboring reverse transcriptase M204I/S202G/M250V triple mutant infected in human Huh7 cells assessed as reduction in intracellular DNA levels measured on day 7 by real-time PCR analysis; format: functional, organism-based; conditions: Huh-7, 168 h
Hepatitis B virus [3] = test: Antiviral activity against entecavir-resistant hepatitis B virus harboring reverse transcriptase M204I/S202G double mutant infected in human Huh7 cells assessed as reduction in intracellular DNA levels measured on day 7 by real-time PCR analysis; format: functional, organism-based; conditions: Huh-7, 168 h
Hepatitis B virus [4] = test: Antiviral activity against entecavir-resistant hepatitis B virus harboring reverse transcriptase M204I/S202G double mutant infected in human Huh7 cells assessed as reduction in secreted DNA levels measured on day 7 by real-time PCR analysis; format: functional, organism-based; conditions: Huh-7, 168 h
Hepatitis B virus [5] = test: Antiviral activity against entecavir-resistant wild type hepatitis B virus infected in human Huh7 cells assessed as reduction in secreted DNA levels measured on day 7 by real-time PCR analysis; format: functional, organism-based; conditions: Huh-7, 168 h
Hepatitis B virus [6] = test: Antiviral activity against entecavir-resistant hepatitis B virus harboring reverse transcriptase M204I/S202G/M250V triple mutant infected in human Huh7 cells assessed as reduction in secreted DNA levels measured on day 7 by real-time PCR analysis; format: functional, organism-based; conditions: Huh-7, 168 h
[7] = Cytotoxicity in human HepG2.215 cells assessed as reduction in cell viability after 5 days by CCK8 assay; format: cell-based, HepG2 2.2.15; conditions: HepG2.2.15 cells

Compound: C=C1[C@H](CO)[C@@H](O)C[C@@H]1n1cnc2c(=O)[nH]c(N)nc21
- EC50 (Hepatitis B virus [1]): 0.013 µM
- EC50 (Hepatitis B virus [2]): > 20 µM
- EC50 (Hepatitis B virus [3]): > 20 µM
- EC50 (Hepatitis B virus [4]): > 20 µM
- EC50 (Hepatitis B virus [5]): 0.014 µM
- EC50 (Hepatitis B virus [6]): > 20 µM
- CC50 at 120 h [7]: 30 µM
